Data as given in patent US10278957B2, “Opioid agonist peptides and uses thereof” (Protagonist Therapeutics, Inc., priority 2017, dated 2019).
Square brackets hold non-standard residues; d marks the D form. Peptide text beside a SMILES is read from it. Dmt = Cc1cc(O)cc(C)c1C[C@H](N)C(=O)O; β3hF = N[C@H](CC(=O)O)Cc1ccccc1; Sar = CNCC(=O)O

Key:
[1] = test system: visceral pain (writhing); assay: Acetic Acid or Acetylcholine Writhing Assay; type: in vivo; details: PO; for effect on pain (writhing study): FIGS. 3A and 3B
Description: Animals were fasted overnight prior to the start of the assay. Test and control article doses, ranging from 3-50 mg/kg, were administered (PO) followed by an IP injection of acetic acid (1.0%) or acetylcholine (10 mg/kg), and immediately placed in a viewing chamber. […] Writhing (abdominal constriction) was defined as a contraction of the abdominal musculature accompanied by arching of the back and extension of the limbs. Latency to first writhe and total number of writhes were recorded. Test articles included oral eluxadoline and two illustrative opioid peptides disclosed herein, Peptide A and Peptide D; and control articles included loperamide and morphine

[2] = test system: gastro intestinal motility; assay: Gastro Intestinal Motility Charcoal Transit Assay; type: in vivo; details: for % inhibition of GI motility: Table 4, orally dosed, charcoal transit
Description: Animals were treated with 0.2 mL croton oil 96 and 72 hours before the gastro intestinal transit (GIT) assay. Animals were fasted overnight prior to charcoal meal dosing. Test and control articles were administered (PO, IP) followed by an oral dose of aqueous suspension of 5% charcoal in 10% gum arabic. […] Charcoal meal test were given 30 min post-test article dose. Twenty minutes after administration of the charcoal test meal, animals were euthanized via CO2 inhalation followed by cervical dislocation, and the small and large intestines were examined to evaluate GI transit and motility. GI transit is expressed as a percentage of the distance traveled by the charcoal test meal divided by the length of the intestine.

[3] = SIF assay (stability in simulated intestinal fluid); type: in vitro ADME; details: for SIF (min): Table 4, SIF half-life; for half-life at 20 μM: simulated intestinal fluid (SIF) with pancreatin, simulated intestinal fluid, pH 6.8, pancreatin, 37° C.
Description: SIF was prepared by adding 6.8 g of monobasic potassium phosphate and 10.0 g of pancreatin to 1.0 L of water. After dissolution, the pH was adjusted to 6.8 using NaOH. DMSO stocks (2 mM) were prepared for each of the opioid agonist peptides. Aliquots of the DMSO solutions were dosed into […], each containing 0.5 mL of SIF, which was pre-warmed to 37° C. The final opioid agonist peptide concentration was 20 μM. The vials were kept in a benchtop Thermomixer® for the duration of the experiment. At each timepoint (0, 5, 10, 20, 40, 60, or 360 minutes or 24 hours), 1.0 mL of acetonitrile containing 1% formic acid was added to one vial to terminate the reaction. Samples were stored at 4° C. until the end of the experiment. After the final timepoint was sampled, the tubes were mixed and then centrifuged at 3,000 rpm for 10 minutes. Aliquots of the supernatant were removed, diluted 1:1 into distilled water containing an internal standard, and analyzed by LCMS/MS. The percent of the opioid agonist peptide remaining at each timepoint was calculated based on the peak area response ratio of opioid agonist peptide to the internal standard. Time 0 was set to 100%, and all later timepoints were calculated relative to time 0. Half-lives were calculated by fitting to a first-order exponential decay equation using Graph pad.

[4] = SGF assay (stability in simulated gastric fluid); type: in vitro ADME; details: pig, simulated gastric fluid (SGF) with porcine pepsin, pH 2, pepsin, 37° C.
Description: SGF was prepared by adding 20 mg NaCl, 32 mg porcine pepsin (MP Biochemicals, catalog 02102599), and 70 μl HCl to 10 ml water (final pH=2). Aliquots of SGF (0.5 ml each) were pre-warmed at 37° C. To start the reaction, 1 μl of opioid agonist peptide stock solution (10 mM in DMSO) was added to 0.5 ml SGF and thoroughly mixed such that the final peptide concentration was 20 μM. The reactions were incubated at 37° C. with gentle shaking.
At each timepoint (0, 15, 30, 60 min) 50 µl aliquots were removed and added to 200 ul of acetonitrile containing 0.1% formic acid to quench the reaction. Samples were stored at 4° C. until the end of the experiment and centrifuged at 10,000 rpm for 5 minutes. Aliquots of the supernatant were removed, diluted 1:1 into distilled water containing internal standard, and analyzed by LCMS/MS. The percent of the opioid agonist peptide remaining at each timepoint was calculated based on the peak area response ratio of the opioid agonist peptide to the internal standard. Time 0 was set to 100%, and all later timepoints were calculated relative to time 0. Half-lives were calculated by fitting to a first-order exponential decay equation using GraphPad.

[5] = target: T1, δ-opioid receptor (DOR) (Homo sapiens, UniProt P41143); assay: DOR agonist cAMP assay (HitHunter cAMP, forskolin-stimulated); type: cell-based
T1 construct: host or cells: cAMP Hunter CHO-K1 OPRD1 Gαi cell line
Method in brief: (§1)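 CHO-K1 Gαi cells expressing OPRM1 or OPRD1 were exposed 30 min at 37° C to 11-point threefold agonist dilutions, in duplicate, with 20 uM forskolin final. cAMP quantified by EFC chemiluminescent competitive immunoassay against cAMP standards. EC50 by four-parameter Hill nonlinear regression.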

[6] = target: T2, μ-opioid receptor (MOR) (Homo sapiens, UniProt P35372); assay: MOR agonist cAMP assay (HitHunter cAMP, forskolin-stimulated); type: cell-based
T2 construct: host or cells: cAMP Hunter CHO-K1 OPRM1 Gαi cell line
Method in brief: as §1

[7] = Plasma assay (stability in mouse plasma); type: in vitro ADME; details: 37° C.
Description: Peptides of interest (20 uM) were incubated with pre-warmed mouse plasma (BioreclamationIVT) at 37° C. Aliquots were taken at various time points up to 24 hours (e.g. 0, 0.25, 1, 3, 6 and 24 hr), and immediately quenched with 4 volumes of organic solvent (acetonitrile/methanol (1:1) and 0.1% formic acid, containing 1 μM internal standard). Quenched samples were stored at 4° C. until the end of the experiment and centrifuged at 17,000 g for 15 minutes. The supernatant was diluted 1:1 with deionized water and analyzed using LC-MS. Percentage remaining at each time point was calculated based on the peak area ratio (analyte over internal standard) relative to the initial level at time zero. Half-lives were calculated by fitting to a first-order exponential decay equation using Graph Pad Prism.

T1 sequence (P41143 whole entry): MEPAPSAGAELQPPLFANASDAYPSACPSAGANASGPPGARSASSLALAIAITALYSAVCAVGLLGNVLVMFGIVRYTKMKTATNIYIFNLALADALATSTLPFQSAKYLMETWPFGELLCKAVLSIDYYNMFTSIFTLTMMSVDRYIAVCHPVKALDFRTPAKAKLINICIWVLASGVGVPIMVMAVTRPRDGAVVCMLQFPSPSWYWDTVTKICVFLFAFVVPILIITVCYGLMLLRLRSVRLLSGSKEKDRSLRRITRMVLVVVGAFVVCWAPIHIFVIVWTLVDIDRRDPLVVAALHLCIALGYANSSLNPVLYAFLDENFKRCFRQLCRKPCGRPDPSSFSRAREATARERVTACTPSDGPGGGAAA
T2 sequence (P35372 whole entry): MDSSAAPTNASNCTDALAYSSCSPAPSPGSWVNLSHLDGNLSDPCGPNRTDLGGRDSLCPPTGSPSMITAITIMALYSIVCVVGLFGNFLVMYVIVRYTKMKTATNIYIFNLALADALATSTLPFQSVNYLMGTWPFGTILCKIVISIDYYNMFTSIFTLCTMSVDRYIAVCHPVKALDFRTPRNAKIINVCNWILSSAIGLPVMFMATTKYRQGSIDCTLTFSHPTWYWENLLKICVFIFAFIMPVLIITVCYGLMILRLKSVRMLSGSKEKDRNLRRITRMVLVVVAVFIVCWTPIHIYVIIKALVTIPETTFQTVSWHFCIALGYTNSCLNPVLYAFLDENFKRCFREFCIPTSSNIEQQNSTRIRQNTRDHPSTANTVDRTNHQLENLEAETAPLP

Compound | half-life at 20 μM [4] | EC50 [5] | EC50 [6] | half-life at 20 μM [3] | also measured
Cc1cc(O)cc(C)c1C[C@H](N)C(=O)N[C@H](C)C(=O)NCC(=O)N[C@H](CC(=O)N(C)CC(N)=O)Cc1ccccc1 [Seq. ID 43, H-DMT-a-G-bhF-Sar-NH2] |  |  |  |  | effect on pain (writhing study) [1]: positive effect; visceral pain (writhing study) ([1]; at 30 mg/kg and 10 mg/kg, FIGS. 2A and 2B): significantly reduced visceral pain; % inhibition of GI motility [2]: ** (** indicates between 50% and 100%); inhibition of small intestine motility as compared to eluxadoline ([2]; orally administered, all doses tested, FIG. 1A): slightly greater inhibition of small intestine motility; inhibition of GI transit as compared to eluxadoline ([2]; orally administered, all doses tested, FIGS. 1B and 1C): greater inhibition of GI transit; SIF (min) [3]: **** (for SIF half-life values, **** indicates >1290)
CCCC[C@@H](C(=O)O)N(C)C(=O)C[C@H](Cc1ccc(C)cc1)NC(=O)CNC(=O)[C@@H](C)NC(=O)[C@@H](N)Cc1c(C)cc(C(N)=O)cc1C [compound 165] | > 24 h | < 1 nM | < 1 nM | 0.167 to 6 h | 
Cc1cc(O)cc(C)c1C[C@H](N)C(=O)NCC(=O)NCC(=O)N[C@H](CC(=O)N(C)CC(N)=O)Cc1ccccc1 [compound 81] (H-[Dmt]GG[β3hF][Sar]-NH2) | > 24 h | < 1 nM | < 1 nM | > 24 h | 
CCCC[C@@H](C(=O)O)N(C)C(=O)C[C@H](Cc1ccccc1)NC(=O)CNC(=O)[C@@H](C)NC(=O)[C@@H](N)Cc1c(C)cc(C(N)=O)cc1C [compound 101] | > 24 h | < 1 nM | 1 to 10 nM | > 24 h | 
CCCC[C@@H](C(=O)O)N(C)C(=O)C[C@H](Cc1cccc(Cl)c1)NC(=O)CNC(=O)[C@@H](C)NC(=O)[C@@H](N)Cc1c(C)cc(C(N)=O)cc1C [compound 167] | > 24 h | < 1 nM | < 1 nM | > 24 h | 
COc1ccc(CN(C(=O)[C@@H](N)Cc2c(C)cc(C(N)=O)cc2C)[C@@H](C)c2ncc(-c3ccccc3)[nH]2)cc1C(=O)O [eluxadoline, reference compound] |  |  |  |  | effect on pain (writhing study) [1]: little effect on pain
CCCC[C@H](NC(=O)[C@H](Cc1ccccc1)NC(=O)CNC(=O)[C@@H](C)NC(=O)[C@@H](N)Cc1c(C)cc(O)cc1C)C(N)=O [compound 37] | 0.167 to 6 h |  |  | ≤ 0.167 h | half-life at 20 uM [7]: 6 to 24 h
Cc1cc(O)cc(C)c1C[C@H](N)C(=O)N[C@H](C)C(=O)NCC(=O)N[C@H](CC(=O)N(CC(N)=O)Cc1ccccc1)Cc1ccccc1 [compound 118] | > 24 h | < 1 nM | < 1 nM | > 24 h | 
Cc1cc(O)cc(C)c1C[C@H](N)C(=O)N[C@H](C)C(=O)NCC(=O)N[C@H](CC(=O)N(C)[C@H](C(=O)O)C(C)C)Cc1ccccc1 [compound 161] | > 24 h | < 1 nM | < 1 nM | > 24 h | 
CCCC[C@@H](C(=O)O)N(C)C(=O)C[C@H](Cc1ccccc1C)NC(=O)CNC(=O)[C@@H](C)NC(=O)[C@@H](N)Cc1c(C)cc(O)cc1C [compound 140] | 6 to 24 h | < 1 nM | < 1 nM | 6 to 24 h | 
Cc1cc(O)cc(C)c1C[C@H](N)C(=O)N[C@H](C)C(=O)NCC(=O)N[C@H](CC(=O)N(C)CC(N)=O)Cc1ccccc1 [compound 43] | > 24 h | < 1 nM |  | 6 to 24 h | half-life at 20 uM [7]: 6 to 24 h
Cc1cc(C(N)=O)cc(C)c1C[C@H](N)C(=O)N[C@H](C)C(=O)NCC(=O)N[C@H](CC(=O)N(C)CC(=O)O)Cc1ccccc1 [compound 79] | > 24 h | < 1 nM | < 1 nM | > 24 h | 
Cc1cc(C(N)=O)cc(C)c1C[C@H](N)C(=O)N[C@H](C)C(=O)NCC(=O)N[C@H](CC(=O)N(C)[C@H](C(=O)O)C(C)C)Cc1ccccc1 [compound 96] | > 24 h | < 1 nM | < 1 nM | > 24 h | 
Cc1cc(C(N)=O)cc(C)c1C[C@H](N)C(=O)N[C@H](C)C(=O)NCC(=O)N[C@H](CC(=O)N(C)CC(N)=O)Cc1ccccc1 [compound 70] | 0.167 to 6 h | < 1 nM | < 1 nM | > 24 h | 
Cc1cc(O)cc(C)c1C[C@H](N)C(=O)N[C@H](C)C(=O)N[C@@H](C)C(=O)N[C@H](CC(=O)N(C)CC(N)=O)Cc1ccccc1 [Seq. ID 66, DMT-(D)Ala-Ala-(b-homoPhe)-Sar-NH2] (H-[Dmt][dA]A[β3hF][Sar]-NH2) |  |  |  |  | % inhibition of GI motility [2]: * (for % inhibition of GI motility, * indicates between 30% and 50%); Ratio (MOR EC50/DOR EC50) ([6]; Table 4, MOR EC50 divided by DOR EC50): * (for ratio, * indicates between 0.1 and 0.3); SIF (min) [3]: **** (for SIF half-life values, **** indicates >1290)
Cc1cc(C(N)=O)cc(C)c1C[C@H](N)C(=O)N[C@H](C)C(=O)NCC(=O)N[C@H](CC(=O)N(C)[C@@H](C)C(=O)O)Cc1ccccc1 [compound 93] | > 24 h | < 1 nM | < 1 nM | > 24 h | 
Cc1cc(O)cc(C)c1C[C@H](N)C(=O)N[C@H](C)C(=O)NCC(=O)N[C@H](CC(=O)N(C)[C@@H](C)C(=O)O)Cc1ccccc1 [compound 111] | > 24 h | < 1 nM | < 1 nM | > 24 h | 
CCCC[C@@H](C(=O)O)N(C)C(=O)C[C@H](Cc1ccc(F)cc1)NC(=O)CNC(=O)[C@@H](C)NC(=O)[C@@H](N)Cc1c(C)cc(C(N)=O)cc1C [compound 166] | > 24 h | < 1 nM | < 1 nM | > 24 h | 
Cc1cc(C(N)=O)cc(C)c1C[C@H](N)C(=O)N[C@@H](C(=O)NCC(=O)N[C@H](CC(=O)N(C)CC(N)=O)Cc1ccccc1)[C@H](C)O [compound 76] | 0.167 to 6 h | < 1 nM | 1 to 10 nM | > 24 h | 
Cc1cc(C(N)=O)cc(C)c1C[C@H](N)C(=O)N[C@H](C)C(=O)NCC(=O)N[C@H](CC(=O)N(C)[C@@H](CC(C)C)C(=O)O)Cc1ccccc1 [compound 92] | > 24 h | < 1 nM | 1 to 10 nM | > 24 h | 
Cc1cc(O)cc(C)c1C[C@H](N)C(=O)N[C@H](Cc1ccc(O)cc1)C(=O)NCC(=O)N[C@H](CC(=O)N(C)CC(N)=O)Cc1ccccc1 [compound 84] | > 24 h | < 1 nM | < 1 nM | > 24 h | 
